Patent publication US20250282764A1, “IMIDAZOLE HETEROCYCLE BASED COMPOUNDS AND METHODS OF TREATING CANCER” (King Abdulaziz University, priority 2024, published 2025)

Tests used:
K562 = experiment: CellTiter-Blue cell viability assay, K562; format: cell-based, human; settings: 48 h, mean of triplicates
Protocol: (§1) Cell culture of leukemia cell lines model was performed as follows. HL60, K562, and NB4 cell lines were purchased from CLS Cell Line Service GmbH (Eppelheim, Germany). MV4-11 cell line was purchased from American Type Culture Collection (ATCC; Virginia, USA). KG1α also referred to as KG1a was a gift from Prof. Ghulam Mufti (King College London, UK). Kasumi-1 cell line was purchased from Nawah Scientific (Cairo, Egypt). All cell lines were cultured in Roswell Park Memorial Institute-1640 (RPMI-1640) culture medium supplemented with 10% fetal bovine serum (FBS) (Thermo Fisher Scientific) and 0.1% ciprofloxacin (10 μg/ml; Cipla Limited; Mumbai, India). Cells were maintained in a humidified incubator at 37° C. with 5% CO2.
(§2) Cell viability was determined using the CellTiter-Blue® Cell Viability Assay kit (Promega, Madison, WI, USA). Approximately […] were plated in 96 well plate in the presence of increasing drug concentration in triplicate and incubated for 48 h at 37° C. in a humidified incubator. After the incubation period, 20 μL of the cell titer blue reagent was added to each well and the plate was incubated for additional 2 h for the development of florescence. Florescence was measured at 540Ex/590Em on SpectraMax i3 Multi-Mode Microplate Reader (Molecular Devices, LLC; San Jose, CA, USA). […]

[1] = Binding to mouse plasma proteins (equilibrium dialysis); format: in vitro ADME
Protocol: Binding to mouse plasma proteins was determined as follows. The equilibrium dialysis method for determining plasma protein binding was performed using 96-well dialyzer plates with molecular weight cutoff of 5K (Harvard Apparatus, Holliston, MA) and a dual-plate rotator set to maximum speed (Harvard Apparatus, Holliston, MA) located in a 37° C. incubator with a 10% CO2-atmospheric environment. Assays were run in triplicate. The test compound was added to CD-1 mouse plasma (Innovative Research, Novi, MI, sodium heparin added as anticoagulant; pH adjusted to 7.4 with 2N HCl on day of use) in DMSO (final DMSO concentration 0.4%) to give 10 μM final concentration. Drug/plasma mixture and buffer (Dulbecco's phosphate-buffered saline 1× without calcium and magnesium, Mediatech, Inc., Herndon, VA) were placed in their respective sides, wells were capped, and the plate was placed in the rotator and allowed to dialyze for 22 h. […] Concentrations of analyte from each side of the dialysis plate were determined by LC/MS/MS on a Waters Xevo TQ instrument as described above using positive electrospray ionization. […] The fraction unbound was calculated by dividing the drug concentration in the buffer side of the dialysis plate by the drug concentration in the plasma side.

DLD1 = experiment: CellTiter-Blue cell viability assay, DLD1; format: cell-based, human; settings: 48 h, 50% cell viability vs untreated, mean of triplicates
Protocol: (§3) Cell culture of colorectal carcinoma cell lines was performed as follows. DLD-1, HCT116, and HT-29 cells were purchased from CLS Cell Line Service GmbH (Eppelheim, Germany) and cultured in Dulbecco's Modified Eagle Medium (DMEM) high glucose, GlutaMAX™ Supplement, pyruvate (Thermo Fisher Scientific, Paisley, UK) supplemented with 10% fetal bovine serum (FBS; Thermo Fisher Scientific), 200 U/mL penicillin, and 200 μg/ml streptomycin (Thermo Fisher Scientific), at 37° C. with 5% CO2 in a humidified incubator.
(§4) The CellTiter®-Blue Cell Viability assay was acquired from Promega Corporation (Madison, WI, USA). Cell viability assay was performed as follows: DLD-1 (4×10^3/well), HCT116 (4×10^3/well), and HT-29 (7×10^3/well) were incubated with a concentration gradient of compound (Id) ranging from 0.01 to 20 μM, in 96-well plates for 48 h at 37° C. Subsequently, 20 μl CellTiter®-Blue Cell Viability reagent was added to each well and incubated for an additional 2 h for the development of fluorescence. The fluorescence emission was measured at 590 nm using a SpectraMax® i3× Multi-Mode microplate reader (Molecular Devices, LLC, San Jose, CA, USA) and plotted against drug concentrations to determine the mean inhibitory concentration of compound (Id) producing 50% decrease in cell viability (IC50). Experiments were performed in triplicates.

MV4-11 = experiment: CellTiter-Blue cell viability assay, MV4-11; format: cell-based, human; settings: 48 h, mean of triplicates
Protocol: as §1, §2

NB4 = experiment: CellTiter-Blue cell viability assay, NB4; format: cell-based, human; settings: 48 h, mean of triplicates
Protocol: as §1, §2

Kasumi-1 = experiment: CellTiter-Blue cell viability assay, Kasumi-1; format: cell-based, human; settings: 48 h, mean of triplicates
Protocol: as §1, §2

HCT116 = experiment: CellTiter-Blue cell viability assay, HCT116; format: cell-based, human; settings: 50% cell viability vs untreated, mean of triplicates
Protocol: as §3, §4

[2] = Stability in mouse plasma; format: in vitro ADME; settings: for Mouse Plasma Stability t1/2: 1 μM, 37° C.
Protocol: Stability in mouse plasma was tested as follows. The assay was conducted at 37° C. in triplicate. Test compound or procaine (positive control) was tested at a final concentration of 1 μM in either 2.5% DMSO/CD-1 mouse plasma (Innovative Research, Novi, MI; sodium heparin added as anticoagulant; pH adjusted to 7.4 with 2N HCl on day of use) or 2.5% DMSO/PBS (pH 7.4:136.9 mM NaCl, 2.68 mM KCl, 8.1 mM Na2HPO4, 1.47 mM KH2PO4, 0.9 mM CaCl2, 0.49 mM MgCl2). At seven time points, reaction mixture aliquots were transferred to 96-shallow well stop plates on ice containing acetonitrile with 0.1 μM propafenone. Samples were analyzed by LC/MS/MS on a Waters Xevo TQ instrument as described above using positive electrospray ionization. Assay acceptance criteria was 20% for all standards and 25% for the LLOQ. GraphPad® Prism v. 5.04 was used for nonlinear fitting of data to generate t1/2 values.

HT29 = experiment: CellTiter-Blue cell viability assay, HT29; format: cell-based, human; settings: 50% cell viability vs untreated, mean of triplicates
Protocol: as §3, §4

Compound	IC50 (K562; Homo sapiens, K562) [nM]	fraction unbound at 22 h, 10 μM ([1]; CD-1, mouse, plasma, pH 7.4, equilibrium dialysis 22 h, read-out: Mouse PPB (% free))	IC50 (DLD1; Homo sapiens, DLD-1) [nM]	IC50 (MV4-11; Homo sapiens, MV4-11) [nM]	IC50 (NB4; Homo sapiens, NB-4) [nM]	IC50 (Kasumi-1; Homo sapiens, Kasumi 1) [nM]	IC50 (HCT116; 48 h) [nM]	IC50 (HCT116; Homo sapiens, HCT-116, 48 h) [nM]	Mouse Plasma Stability t1/2 [2] [h]	half-life at 1 μM ([2]; CD-1, mouse, plasma, pH 7.4, 37° C., read-out: Mouse Plasma Stability t1/2) [h]	IC50 (HT29; 48 h) [nM]	IC50 (HT29; Homo sapiens, HT-29, 48 h) [nM]	IC50 (K562) [nM]	Mouse PPB (% free) ([1]; 10 μM, equilibrium dialysis 22 h) [%]	IC50 (DLD1) [nM]	IC50 (MV4-11) [nM]	IC50 (NB4) [nM]	IC50 (Kasumi-1) [nM]
CC1=N/C(=C\c2ccc(C)o2)C(=O)N1c1ccc(CC(=O)NCc2ccccc2)cc1 [Compound (Id), 2-Methyl-4-(5-methyl-2-furyl)methylene-1-[4-(benzylaminocarbonylmethyl)phenyl]-5-oxo-1H-imidazole]	437	0.032	1350	254	189	221	1460	1460	>5	> 5	1340	1340						
COc1ccc(/C=C2\N=C(C)N(c3ccc(CC(=O)NCc4ccccc4)cc3)C2=O)cc1 [KIM-161, reference compound]							1770		>5		1840		282	5	1730	361	148	166
